Source: PubChem BioAssay (NCI)
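Cells were grown in 96-well plates and exposed to each compound for 48 hours at five concentrations; endpoints were interpolated linearly between bracketing concentrations, or set to the highest concentration if not reached. GI50 marks 50% less growth. TGI: total growth inhibition.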

What was measured:
Assay in all cases: DTP human tumour cell line panel, 48 h
SNB-19 CNS = tested on: SNB-19 CNS
ACHN renal = tested on: ACHN renal
RXF 393 renal = tested on: RXF 393 renal
CCRF-CEM leukemia = tested on: CCRF-CEM leukemia
MOLT-4 leukemia = tested on: MOLT-4 leukemia
OVCAR-3 ovarian = tested on: OVCAR-3 ovarian
HCC-2998 colon = tested on: HCC-2998 colon
MDA-MB-435 = tested on: MDA-MB-435
HOP-92 NSCLC = tested on: HOP-92 NSCLC
UACC-62 melanoma = tested on: UACC-62 melanoma
SK-MEL-2 melanoma = tested on: SK-MEL-2 melanoma
K-562 leukemia = tested on: K-562 leukemia
NCI-H460 lung = tested on: NCI-H460 lung
TK-10 renal = tested on: TK-10 renal
UACC-257 melanoma = tested on: UACC-257 melanoma
NCI-H226 lung = tested on: NCI-H226 lung
SW-620 colon = tested on: SW-620 colon
COLO 205 colon = tested on: COLO 205 colon
A498 renal = tested on: A498 renal
MCF7 breast = tested on: MCF7 breast
OVCAR-4 ovarian = tested on: OVCAR-4 ovarian
LOX IMVI melanoma = tested on: LOX IMVI melanoma
A549 NSCLC = tested on: A549 NSCLC
CAKI-1 renal = tested on: CAKI-1 renal
SK-MEL-5 melanoma = tested on: SK-MEL-5 melanoma
SF-295 CNS = tested on: SF-295 CNS
T-47D breast = tested on: T-47D breast
HOP-62 NSCLC = tested on: HOP-62 NSCLC
BT-549 breast = tested on: BT-549 breast
OVCAR-8 ovarian = tested on: OVCAR-8 ovarian
786-0 renal = tested on: 786-0 renal
HCT-116 colon = tested on: HCT-116 colon
SN12C renal = tested on: SN12C renal
KM12 colon = tested on: KM12 colon
MDA-MB-468 breast = tested on: MDA-MB-468 breast
EKVX NSCLC = tested on: EKVX NSCLC
NCI-H23 lung = tested on: NCI-H23 lung
MALME-3M melanoma = tested on: MALME-3M melanoma
U251 CNS = tested on: U251 CNS
SK-MEL-28 melanoma = tested on: SK-MEL-28 melanoma
SNB-75 CNS = tested on: SNB-75 CNS
HCT-15 colon = tested on: HCT-15 colon
IGROV1 ovarian = tested on: IGROV1 ovarian
SK-OV-3 ovarian = tested on: SK-OV-3 ovarian
SF-268 CNS = tested on: SF-268 CNS
HL-60(TB) leukemia = tested on: HL-60(TB) leukemia
SR leukemia = tested on: SR leukemia
MDA-MB-231 breast = tested on: MDA-MB-231 breast
OVCAR-5 ovarian = tested on: OVCAR-5 ovarian
HT29 colon = tested on: HT29 colon
DU-145 prostate = tested on: DU-145 prostate
SF-539 CNS = tested on: SF-539 CNS
PC-3 prostate = tested on: PC-3 prostate
NCI-H522 lung = tested on: NCI-H522 lung
M14 melanoma = tested on: M14 melanoma
UO-31 renal = tested on: UO-31 renal

C=C1CC[C@@H]2[C@]3(C)COC(c4cn[nH]c4-c4ccc(OC)cc4)O[C@@H]3CC[C@@]2(C)[C@@H]1C/C=C1/C(=O)OCC1O (some centres not stated)
GI50 (SNB-19 CNS): 4.42 µM
TGI (SNB-19 CNS): 19.4 µM
GI50 (ACHN renal): 3.52 µM
TGI (ACHN renal): 14.1 µM
GI50 (RXF 393 renal): 1.74 µM
TGI (RXF 393 renal): 3.4 µM
GI50 (CCRF-CEM leukemia): 2.08 µM
TGI (CCRF-CEM leukemia): 6.9 µM
GI50 (MOLT-4 leukemia): 2.21 µM
TGI (MOLT-4 leukemia): > 100 µM
GI50 (OVCAR-3 ovarian): 2.27 µM
TGI (OVCAR-3 ovarian): 5.87 µM
GI50 (HCC-2998 colon): 2.87 µM
TGI (HCC-2998 colon): 8.28 µM
GI50 (MDA-MB-435): 2.24 µM
TGI (MDA-MB-435): 6.42 µM
GI50 (HOP-92 NSCLC): 2.02 µM
TGI (HOP-92 NSCLC): 5 µM
GI50 (UACC-62 melanoma): 1.68 µM
TGI (UACC-62 melanoma): 4.06 µM
GI50 (SK-MEL-2 melanoma): 3.97 µM
TGI (SK-MEL-2 melanoma): 17.8 µM
GI50 (K-562 leukemia): 2.71 µM
TGI (K-562 leukemia): > 100 µM
GI50 (NCI-H460 lung): 1.91 µM
TGI (NCI-H460 lung): 3.9 µM
GI50 (TK-10 renal): 4.12 µM
TGI (TK-10 renal): 16.7 µM
GI50 (UACC-257 melanoma): 2.46 µM
TGI (UACC-257 melanoma): 8.92 µM
GI50 (NCI-H226 lung): 3.58 µM
TGI (NCI-H226 lung): 18.4 µM
GI50 (SW-620 colon): 2.29 µM
TGI (SW-620 colon): 5.56 µM
GI50 (COLO 205 colon): 1.95 µM
TGI (COLO 205 colon): 3.73 µM
GI50 (A498 renal): 17 µM
TGI (A498 renal): 50.5 µM
GI50 (MCF7 breast): 2.48 µM
TGI (MCF7 breast): 11.8 µM
GI50 (OVCAR-4 ovarian): 2.96 µM
TGI (OVCAR-4 ovarian): > 100 µM
GI50 (LOX IMVI melanoma): 1.73 µM
TGI (LOX IMVI melanoma): 3.42 µM
GI50 (A549 NSCLC): 3.32 µM
TGI (A549 NSCLC): 19.5 µM
GI50 (CAKI-1 renal): 2.96 µM
TGI (CAKI-1 renal): 12.1 µM
GI50 (SK-MEL-5 melanoma): 1.52 µM
TGI (SK-MEL-5 melanoma): 2.95 µM
GI50 (SF-295 CNS): 2.13 µM
TGI (SF-295 CNS): 4.77 µM
GI50 (T-47D breast): 3.25 µM
TGI (T-47D breast): > 100 µM
GI50 (HOP-62 NSCLC): 3.44 µM
TGI (HOP-62 NSCLC): 14.2 µM
GI50 (BT-549 breast): 2.36 µM
TGI (BT-549 breast): 7.22 µM
GI50 (OVCAR-8 ovarian): 3.34 µM
TGI (OVCAR-8 ovarian): > 100 µM
GI50 (786-0 renal): 1.92 µM
TGI (786-0 renal): 3.6 µM
GI50 (HCT-116 colon): 1.86 µM
TGI (HCT-116 colon): 3.57 µM
GI50 (SN12C renal): 3.54 µM
TGI (SN12C renal): 16.5 µM
GI50 (KM12 colon): 2.38 µM
TGI (KM12 colon): 5.43 µM
GI50 (MDA-MB-468 breast): 2.17 µM
TGI (MDA-MB-468 breast): 5.6 µM
GI50 (EKVX NSCLC): 2.66 µM
TGI (EKVX NSCLC): 10.5 µM
GI50 (NCI-H23 lung): 2.51 µM
TGI (NCI-H23 lung): 7.69 µM
GI50 (MALME-3M melanoma): 1.74 µM
TGI (MALME-3M melanoma): 3.64 µM
GI50 (U251 CNS): 2.77 µM
TGI (U251 CNS): 10.7 µM
GI50 (SK-MEL-28 melanoma): 2.54 µM
TGI (SK-MEL-28 melanoma): 5.91 µM
GI50 (SNB-75 CNS): 1.75 µM
TGI (SNB-75 CNS): 5.86 µM
GI50 (HCT-15 colon): 2.54 µM
TGI (HCT-15 colon): 8.37 µM
GI50 (IGROV1 ovarian): 3.98 µM
TGI (IGROV1 ovarian): 20 µM
GI50 (SK-OV-3 ovarian): 10.5 µM
TGI (SK-OV-3 ovarian): 67.4 µM
GI50 (SF-268 CNS): 3.25 µM
TGI (SF-268 CNS): > 100 µM
GI50 (HL-60(TB) leukemia): 2.69 µM
TGI (HL-60(TB) leukemia): 14.7 µM
GI50 (SR leukemia): 2.87 µM
TGI (SR leukemia): > 100 µM
GI50 (MDA-MB-231 breast): 2.39 µM
TGI (MDA-MB-231 breast): 5.48 µM
GI50 (OVCAR-5 ovarian): 3.9 µM
TGI (OVCAR-5 ovarian): 13.4 µM
GI50 (HT29 colon): 2.86 µM
TGI (HT29 colon): 7.91 µM
GI50 (DU-145 prostate): 3.23 µM
TGI (DU-145 prostate): 12.1 µM
GI50 (SF-539 CNS): 2.03 µM
TGI (SF-539 CNS): 4.36 µM
GI50 (PC-3 prostate): 2.98 µM
TGI (PC-3 prostate): > 100 µM
GI50 (NCI-H522 lung): 2.49 µM
TGI (NCI-H522 lung): 7.81 µM
GI50 (M14 melanoma): 3.14 µM
TGI (M14 melanoma): 13.2 µM
GI50 (UO-31 renal): 1.7 µM
TGI (UO-31 renal): 3.91 µM
